# According to patent publication US10357576B2, “18F-labelled folate/antifolate analogues” (MERCK & CIE, priority 2012, dated 2019):
# Assay: Log D7.4 determination, shake-flask method (n-octanol/PBS)
# Type: physicochemical
# Conditions: n-octanol/PBS pH 7.4, room temperature, n=10
# Description: Determination of the Log D: Determination of the log D value was performed, using the shake-flask-method, where the partition coefficient of the radiotracer between n-octanol and phosphate buffered saline (PBS) was determined (Wilson et al. 2001 Applied Radiation and Isotopes). n-Octanol (0.5 ml) and PBS (0.5 ml) were mixed in an Eppendorf tube containing the radioactive sample (5-10 μl). Tubes were shaken for 15 min at room temperature in an over-head shaker and afterwards centrifuged (3 min, 5000 rpm). From each Eppendorf tube, 50 μl of each phase were transferred into a vial for counting in a γ-counter. The log D value was calculated according to the following equation: log D7.4=log [activity(octanol phase)/activity PBS phase)].
# For log D7.4 determination a phosphate buffer was prepared, making a solution of KH2PO4 (1.743 g, 12.81 mmol) and Na2HPO4.2H2O (9.596 g, 53.91 mmol) in water (1000 ml). A saturated solution of phosphate buffer in n-octanol and a saturated solution of n-octanol in phosphate buffer were prepared. The PBS solution (500 μl) and n-octanol solution (500 μl) were pipetted into an Eppendorf tube and the radiotracer (5-10 μl) was added. The Eppendorf tube was shaken for 15 min at room temperature in an over-head shaker. […] By calculating the logarithm of the ratio of the counts in the n-octanol and the PBS phase, the log D7.4 value was determined. […]
structure (smiles),measurement,setting,value
Nc1nc2ncc(CNc3ccc(C(=O)N[C@@H](CCC(=O)O)C(=O)O)c([18F])n3)nc2c(=O)[nH]1 [3′-aza-2′-[^18F]fluorofolic acid],log D7.4 (partition coefficient in n-octanol/PBS),,−4.2±0.1
same,logD,read-out: log D7.4 (partition coefficient in n-octanol/PBS),-4.2 ± 0.1
